{"source": "paper PMC7007966", "about": "(Journal of medicinal chemistry, 2019)", "key": {"[1]": {"molecular_target": "T1, rat DOR (C6-DOR membranes) (Rattus norvegicus, UniProt P33533)", "settings": "[35S]-GTPγS stimulation relative to DPDPE; cited from earlier work"}, "[2]": {"molecular_target": "T2, rat MOR (C6-MOR membranes) (Rattus norvegicus, UniProt P33535)", "assay": "Radioligand competition binding, [3H]-diprenorphine displacement", "settings": "ratio of binding affinities; 1A-D, 2B, 2D previously reported compounds"}, "[3]": {"molecular_target": "T1, rat DOR (C6-DOR membranes)", "assay": "[35S]-GTPγS binding assay", "format": "biochemical", "settings": "for DOR efficacy (in words): [35S]-GTPγS stimulation relative to DPDPE at 10 μM"}, "[4]": {"molecular_target": "T2, rat MOR (C6-MOR membranes)", "assay": "[35S]-GTPγS binding assay", "format": "biochemical", "settings": "[35S]-GTPγS stimulation relative to DAMGO"}, "[5]": {"molecular_target": "T3, human KOR (CHO-KOR membranes) (Homo sapiens, UniProt P41145)", "assay": "Radioligand competition binding, [3H]-diprenorphine displacement", "settings": "competitive displacement of [3H]-diprenorphine, membrane preparations"}, "[6]": {"molecular_target": "T3, human KOR (CHO-KOR membranes)", "assay": "[35S]-GTPγS binding assay", "format": "biochemical", "settings": "[35S]-GTPγS stimulation relative to U69,593 at 10 μM"}}, "note": "Entries after “also recorded” stand apart in the source; their conditions may differ.", "data": [{"smiles": "Cc1cc(O)cc(C)c1C[C@H](N)C(=O)N[C@@H]1CCNc2ccc(Cc3ccccc3)cc21.O=C(O)C(F)(F)F", "note": "[Compound 1A]", "values": [{"measurement": "DOR efficacy (in words), previously reported compounds", "setting": "[1]", "result": "low DOR agonist activity"}]}, {"smiles": "Cc1cc(O)cc(C)c1C[C@H](N)C(=O)N[C@@H]1CCNc2ccc(Cc3ccc4ccccc4c3)cc21.O=C(O)C(F)(F)F", "note": "[Compound 1B]", "values": [{"measurement": "selectivity for MOR over DOR (DOR Ki/MOR Ki)", "setting": "[2]", "result": 100, "unit": "fold"}]}, {"smiles": "Cc1cc(O)cc(C)c1C[C@H](N)C(=O)N[C@@H]1CCNc2ccc(Cc3cc4ccccc4o3)cc21.O=C(O)C(F)(F)F", "note": "[Compound 1F]", "values": [{"measurement": "DOR efficacy (in words)", "setting": "[3]", "result": "DOR antagonists"}, {"measurement": "MOR efficacy (in words)", "setting": "[4]", "result": "MOR agonists"}]}, {"smiles": "CC(=O)N1CC[C@@H](NC(=O)[C@@H](N)Cc2c(C)cc(O)cc2C)c2cc(Cc3ccccc3)ccc21.O=C(O)C(F)(F)F", "note": "[Compound 2A]", "values": [{"measurement": "DOR efficacy (in words), previously reported compounds", "setting": "[1]", "result": "significant efficacy at DOR"}]}, {"smiles": "CC(=O)N1CC[C@@H](NC(=O)[C@@H](N)Cc2c(C)cc(O)cc2C)c2cc(Cc3ccc4ccccc4c3)ccc21.O=C(O)C(F)(F)F", "note": "[Compound 2B]", "values": [{"measurement": "DOR efficacy (in words), previously reported compounds", "setting": "[1]", "result": "DOR antagonist profile"}]}, {"smiles": "CC(=O)N1CC[C@@H](NC(=O)[C@@H](N)Cc2c(C)cc(O)cc2C)c2cc(Cc3cnc4ccccc4c3)ccc21.O=C(O)C(F)(F)F", "note": "[Compound 2C]", "values": [{"measurement": "DOR efficacy (in words)", "setting": "[3]", "result": "significant efficacy at DOR"}]}, {"smiles": "CC(=O)N1CC[C@@H](NC(=O)[C@@H](N)Cc2c(C)cc(O)cc2C)c2cc(CN3CCc4ccccc4C3)ccc21.O=C(O)C(F)(F)F", "note": "[Compound 2D]", "values": [{"measurement": "KOR affinity (in words)", "setting": "[5]", "result": "relatively high KOR affinity"}, {"measurement": "KOR efficacy (in words)", "setting": "[6]", "result": "relatively high KOR affinity and efficacy"}]}, {"smiles": "CC(=O)N1CC[C@@H](NC(=O)[C@@H](N)Cc2c(C)cc(O)cc2C)c2cc(Cc3cc4ccccc4o3)ccc21.O=C(O)C(F)(F)F", "note": "[Compound 2F]", "values": [{"measurement": "DOR efficacy (in words)", "setting": "[3]", "result": "significant efficacy at DOR; also recorded: DOR partial agonists"}, {"measurement": "MOR efficacy (in words)", "setting": "[4]", "result": "MOR agonists"}]}, {"smiles": "Cc1cc(O)cc(C)c1C[C@H](N)C(=O)N[C@@H]1CCN(C(=O)C2CC2)c2ccc(Cc3ccccc3)cc21.O=C(O)C(F)(F)F", "note": "[Compound 3A]", "values": [{"measurement": "DOR efficacy (in words)", "setting": "[3]", "result": "significant efficacy at DOR"}]}, {"smiles": "Cc1cc(O)cc(C)c1C[C@H](N)C(=O)N[C@@H]1CCN(C(=O)C2CC2)c2ccc(Cc3ccc4ccccc4c3)cc21.O=C(O)C(F)(F)F", "note": "[Compound 3B]", "values": [{"measurement": "DOR efficacy (in words)", "setting": "[3]", "result": "significant efficacy at DOR"}]}, {"smiles": "Cc1cc(O)cc(C)c1C[C@H](N)C(=O)N[C@@H]1CCN(C(=O)C2CC2)c2ccc(Cc3cnc4ccccc4c3)cc21.O=C(O)C(F)(F)F", "note": "[Compound 3C]", "values": [{"measurement": "DOR agonist potency (in words)", "setting": "[3]; [35S]-GTPγS stimulation", "result": "subnanomolar"}, {"measurement": "DOR efficacy (in words)", "setting": "[3]", "result": "significant efficacy at DOR"}]}, {"smiles": "Cc1cc(O)cc(C)c1C[C@H](N)C(=O)N[C@@H]1CCN(C(=O)C2CC2)c2ccc(Cc3cc4ccccc4o3)cc21.O=C(O)C(F)(F)F", "note": "[Compound 3F]", "values": [{"measurement": "DOR efficacy (in words)", "setting": "[3]", "result": "significant efficacy at DOR; also recorded: DOR partial agonists"}, {"measurement": "MOR efficacy (in words)", "setting": "[4]", "result": "MOR agonists"}]}, {"smiles": "Cc1cc(O)cc(C)c1C[C@H](N)C(=O)N[C@@H]1CCN(S(C)(=O)=O)c2ccc(Cc3ccccc3)cc21.O=C(O)C(F)(F)F", "note": "[Compound 4A]", "values": [{"measurement": "DOR efficacy (in words)", "setting": "[3]", "result": "partial DOR agonism"}]}, {"smiles": "Cc1cc(O)cc(C)c1C[C@H](N)C(=O)N[C@@H]1CCN(S(C)(=O)=O)c2ccc(CN3CCc4ccccc4C3)cc21.O=C(O)C(F)(F)F", "note": "[Compound 4D]", "values": [{"measurement": "KOR affinity (in words)", "setting": "[5]", "result": "relatively high KOR affinity"}, {"measurement": "KOR efficacy (in words)", "setting": "[6]", "result": "relatively high KOR affinity and efficacy"}]}, {"smiles": "Cc1cc(O)cc(C)c1C[C@H](N)C(=O)N[C@@H]1CCN(S(C)(=O)=O)c2ccc(Cc3cc4ccccc4o3)cc21.O=C(O)C(F)(F)F", "note": "[Compound 4F]", "values": [{"measurement": "DOR efficacy (in words)", "setting": "[3]", "result": "DOR antagonists"}, {"measurement": "MOR efficacy (in words)", "setting": "[4]", "result": "MOR agonists"}]}, {"smiles": "Cc1cc(O)cc(C)c1C[C@H](N)C(=O)N[C@@H]1CCN(C(=O)c2ccccc2)c2ccc(Cc3ccc4ccccc4c3)cc21.O=C(O)C(F)(F)F", "note": "[Compound 5B]", "values": [{"measurement": "MOR efficacy (in words)", "setting": "[4]", "result": "partial MOR efficacy"}]}, {"smiles": "Cc1cc(O)cc(C)c1C[C@H](N)C(=O)N[C@@H]1CCN(C(=O)c2ccccc2)c2ccc(Cc3cnc4ccccc4c3)cc21.O=C(O)C(F)(F)F", "note": "[Compound 5C]", "values": [{"measurement": "MOR efficacy (in words)", "setting": "[4]", "result": "partial MOR efficacy"}]}, {"smiles": "Cc1cc(O)cc(C)c1C[C@H](N)C(=O)N[C@@H]1CCN(C(=O)c2ccccc2)c2ccc(Cc3ccc4c(c3)OCCO4)cc21.O=C(O)C(F)(F)F", "note": "[Compound 5E]", "values": [{"measurement": "MOR efficacy (in words)", "setting": "[4]", "result": "no significant MOR efficacy"}]}, {"smiles": "Cc1cc(O)cc(C)c1C[C@H](N)C(=O)N[C@@H]1CCN(C(=O)c2ccccc2)c2ccc(Cc3cc4ccccc4o3)cc21.O=C(O)C(F)(F)F", "note": "[Compound 5F]", "values": [{"measurement": "DOR efficacy (in words)", "setting": "[3]", "result": "DOR antagonist"}, {"measurement": "MOR efficacy (in words)", "setting": "[4]", "result": "MOR partial agonist"}]}]}
